How the values were obtained:
[1] = test system: human tumor-infiltrating lymphocytes (TIL); assay: Flow cytometry immunophenotyping of expanded TIL; type: cell-based; details: for CD4 TCM CD62L+ CCR7+, percentage of total TIL cell number / CD4 TEM CD62L− CCR7−, percentage of total TIL cell number / CD8 TCM CD62L+ CCR7−, percentage of total TIL cell number / CD8 TEM CD62L− CCR7−, percentage of total TIL cell number: TIL1 population, day 28
Method: The plates were placed in a humidified 37° C. incubator with 5% CO2. Half of the medium was replaced every two days after culture initiation. […] Subsequently, half the media was replaced thrice weekly, cultures were split to maintain a cell density of 1×10^6 cells/mL. […] Mitochondrial markers including, Mitotracker, Mitoprobe, and 2-NBDG may also be used to assess differentiation and/or activation of cells.
(§1) T lymphocytes were defined based on lineage and differentiation marker expression according to the developmental model (Restifo, Blood, 124:476-477, 2014), as shown in Table 4.

[2] = test system: human T cells from peripheral blood mononuclear cells; assay: Flow cytometry immunophenotyping of T cells expanded from donor PBMC; type: cell-based; details: for CD4 TCM, percentage of total cell number / CD4 TEM, percentage of total cell number / CD4 TSCM, percentage of total cell number / CD8 TCM, percentage of total cell number / CD8 TEM, percentage of total cell number / CD8 TSCM, percentage of total cell number: donor PBMC, day 11
Text: At day eleven, cells were pooled and counted, and immunophenotyped at day 11 by flow cytometry by measuring expression of lineage (CD4, CD8) and differentiation (including CD45RA, CD45RO, CD95, CCR7, CD62L, TCF1, PD-1, TIM3, LAG3) markers.
as §1

[3] = test system: human tumor-infiltrating lymphocytes (TIL); assay: Rapid Expansion Protocol (REP) of TIL; type: cell-based; details: day 42 (Pre-REP and REP)
Method: PBMC, OKT3 antibody (30 ng/mL), complete medium (“CM”), AIM V media (GIBCO/BRL), and TIL effector cells were combined, mixed, and aliquoted to a 75 cm^2 tissue culture flask. Flasks were incubated upright at 37° C. in 5% CO2. […] About 14 days after initiation of the REP, cells were harvested and cryopreserved for future experimental analysis.

[4] = Compound stability in complete RPMI with 10% human serum (mass spectrometry); type: physicochemical
Method: To assess compound stability, at day 1, 1 μM compound 103 or DMSO was added to complete RMPI containing 10% human serum and stored at either 4° C., 22° C. or 37° C. over an 11 day time period. Concentration of compound 103 was assessed at each indicated timepoint and storage temperature by mass spectrometry. Compound 103 was stable for at least 11 days in RPMI medium (FIG. 33).

Structure (SMILES): C[C@@H]1CN(Cc2cc3c(c(C(F)(F)F)c2)CN(c2cccc(C4(Cc5nncn5C)COC4)c2)C3=O)CCC1(F)F [compound 103]
- CD4 TCM CD62L+ CCR7+, percentage of total TIL cell number ([1]; 0.1 μM Cbl-i): 2.8%
- CD4 TEM CD62L− CCR7−, percentage of total TIL cell number ([1]; 0.1 μM Cbl-i): 67.2%
- CD8 TCM CD62L+ CCR7−, percentage of total TIL cell number ([1]; 0.1 μM Cbl-i): 19.5%
- CD8 TEM CD62L− CCR7−, percentage of total TIL cell number ([1]; 0.1 μM Cbl-i): 37.2%
- CD4 TCM CD62L+ CCR7+, percentage of total TIL cell number ([1]; 1.0 μM Cbl-i): 8.0%
- CD4 TEM CD62L− CCR7−, percentage of total TIL cell number ([1]; 1.0 μM Cbl-i): 24.2%
- CD8 TCM CD62L+ CCR7−, percentage of total TIL cell number ([1]; 1.0 μM Cbl-i): 20.2%
- CD8 TEM CD62L− CCR7−, percentage of total TIL cell number ([1]; 1.0 μM Cbl-i): 15.6%
- CD4 TCM CD62L+ CCR7+, percentage of total TIL cell number ([1]; 10 μM Cbl-i): 15.8%
- CD4 TEM CD62L− CCR7−, percentage of total TIL cell number ([1]; 10 μM Cbl-i): 66.7%
- CD8 TCM CD62L+ CCR7−, percentage of total TIL cell number ([1]; 10 μM Cbl-i): 29.7%
- CD8 TEM CD62L− CCR7−, percentage of total TIL cell number ([1]; 10 μM Cbl-i): 13.2%
- CD4 TCM CD62L+ CCR7+, percentage of total TIL cell number ([1]; IL-2 + 0.1 μM Cbl-i): 12.1%
- CD4 TEM CD62L− CCR7−, percentage of total TIL cell number ([1]; IL-2 + 0.1 μM Cbl-i): 49.3%
- CD8 TCM CD62L+ CCR7−, percentage of total TIL cell number ([1]; IL-2 + 0.1 μM Cbl-i): 20.3%
- CD8 TEM CD62L− CCR7−, percentage of total TIL cell number ([1]; IL-2 + 0.1 μM Cbl-i): 35.5%
- CD4 TCM CD62L+ CCR7+, percentage of total TIL cell number ([1]; IL-2 + 1.0 μM Cbl-i): 15.2%
- CD4 TEM CD62L− CCR7−, percentage of total TIL cell number ([1]; IL-2 + 1.0 μM Cbl-i): 57.3%
- CD8 TCM CD62L+ CCR7−, percentage of total TIL cell number ([1]; IL-2 + 1.0 μM Cbl-i): 16.5%
- CD8 TEM CD62L− CCR7−, percentage of total TIL cell number ([1]; IL-2 + 1.0 μM Cbl-i): 43.3%
- CD4 TCM CD62L+ CCR7+, percentage of total TIL cell number ([1]; IL-2 + 10 μM Cbl-i): 0%
- CD4 TEM CD62L− CCR7−, percentage of total TIL cell number ([1]; IL-2 + 10 μM Cbl-i): 55.8%
- CD8 TCM CD62L+ CCR7−, percentage of total TIL cell number ([1]; IL-2 + 10 μM Cbl-i): 20.5%
- CD8 TEM CD62L− CCR7−, percentage of total TIL cell number ([1]; IL-2 + 10 μM Cbl-i): 35.4%
- Selective expansion of CD8+ T lymphocytes ([1]; malignant ovarian tumor sample, FIG. 7): selectively expand CD8+ T lymphocytes
- Percentage of CD8+ cells vs IL-2 alone ([2]; 1 μM Cbl inhibitor alone): higher percentages of CD8+ cells
- Percentage of CD8+ cells in culture ([2]; IL-2 in combination with 0.1 or 0.5 μM of Cbl inhibitor): highest percentage of CD8+ cells
- CD4 TCM, percentage of total cell number ([2]; 0.1 μM Cbl-i): 53.1%
- CD4 TEM, percentage of total cell number ([2]; 0.1 μM Cbl-i): 23.9%
- CD4 TSCM, percentage of total cell number ([2]; 0.1 μM Cbl-i): 12%
- CD8 TCM, percentage of total cell number ([2]; 0.1 μM Cbl-i): 50.7%
- CD8 TEM, percentage of total cell number ([2]; 0.1 μM Cbl-i): 14.2%
- CD8 TSCM, percentage of total cell number ([2]; 0.1 μM Cbl-i): 17.1%
- CD4 TCM, percentage of total cell number ([2]; 1.0 μM Cbl-i): 55.3%
- CD4 TEM, percentage of total cell number ([2]; 1.0 μM Cbl-i): 19.3%
- CD4 TSCM, percentage of total cell number ([2]; 1.0 μM Cbl-i): 7.27%
- CD8 TCM, percentage of total cell number ([2]; 1.0 μM Cbl-i): 61.1%
- CD8 TEM, percentage of total cell number ([2]; 1.0 μM Cbl-i): 12.9%
- CD8 TSCM, percentage of total cell number ([2]; 1.0 μM Cbl-i): 7.29%
- CD4 TCM, percentage of total cell number ([2]; 10 μM Cbl-i): 47.3%
- CD4 TEM, percentage of total cell number ([2]; 10 μM Cbl-i): 23.3%
- CD4 TSCM, percentage of total cell number ([2]; 10 μM Cbl-i): 1.37%
- CD8 TCM, percentage of total cell number ([2]; 10 μM Cbl-i): 34.2%
- CD8 TEM, percentage of total cell number ([2]; 10 μM Cbl-i): 9.23%
- CD8 TSCM, percentage of total cell number ([2]; 10 μM Cbl-i): 10.8%
- CD4 TCM, percentage of total cell number ([2]; IL-2 + 0.1 μM Cbl-i): 13.9%
- CD4 TEM, percentage of total cell number ([2]; IL-2 + 0.1 μM Cbl-i): 29.7%
- CD4 TSCM, percentage of total cell number ([2]; IL-2 + 0.1 μM Cbl-i): 8.53%
- CD8 TCM, percentage of total cell number ([2]; IL-2 + 0.1 μM Cbl-i): 47.8%
- CD8 TEM, percentage of total cell number ([2]; IL-2 + 0.1 μM Cbl-i): 18.3%
- CD8 TSCM, percentage of total cell number ([2]; IL-2 + 0.1 μM Cbl-i): 4.2%
- CD4 TCM, percentage of total cell number ([2]; IL-2 + 1.0 μM Cbl-i): 16.8%
- CD4 TEM, percentage of total cell number ([2]; IL-2 + 1.0 μM Cbl-i): 28.4%
- CD4 TSCM, percentage of total cell number ([2]; IL-2 + 1.0 μM Cbl-i): 1.98%
- CD8 TCM, percentage of total cell number ([2]; IL-2 + 1.0 μM Cbl-i): 37.8%
- CD8 TEM, percentage of total cell number ([2]; IL-2 + 1.0 μM Cbl-i): 41.4%
- CD8 TSCM, percentage of total cell number ([2]; IL-2 + 1.0 μM Cbl-i): 0.23%
- CD4 TCM, percentage of total cell number ([2]; IL-2 + 10 μM Cbl-i): 24.3%
- CD4 TEM, percentage of total cell number ([2]; IL-2 + 10 μM Cbl-i): 25.8%
- CD4 TSCM, percentage of total cell number ([2]; IL-2 + 10 μM Cbl-i): 2.69%
- CD8 TCM, percentage of total cell number ([2]; IL-2 + 10 μM Cbl-i): 49%
- CD8 TEM, percentage of total cell number ([2]; IL-2 + 10 μM Cbl-i): 10.6%
- CD8 TSCM, percentage of total cell number ([2]; IL-2 + 10 μM Cbl-i): 9.36%
- Selective expansion of CD8+ T lymphocytes ([2]; donor PBMCs, FIGS. 2A and 2B): selectively expand CD8+ T lymphocytes
- Expansion of TIL (REP), total cell number relative to IL-2 alone ([3]; TIL1 (ovary), 0.1 μM Cbl-i): 40%
- Expansion of TIL (REP), total cell number relative to IL-2 alone ([3]; TIL1 (ovary), 1.0 μM Cbl-i): 42%
- Expansion of TIL (REP), total cell number relative to IL-2 alone ([3]; TIL1 (ovary), 10 μM Cbl-i): 32%
- Expansion of TIL (REP), total cell number relative to IL-2 alone ([3]; TIL1 (ovary), IL-2 + 0.1 μM Cbl-i): 50%
- Expansion of TIL (REP), total cell number relative to IL-2 alone ([3]; TIL1 (ovary), IL-2 + 1.0 μM Cbl-i): 52%
- Expansion of TIL (REP), total cell number relative to IL-2 alone ([3]; TIL1 (ovary), IL-2 + 10 μM Cbl-i): 49%
- Expansion of TIL (REP), total cell number relative to IL-2 alone ([3]; TIL3 (ovary), 0.1 μM Cbl-i): 127%
- Expansion of TIL (REP), total cell number relative to IL-2 alone ([3]; TIL3 (ovary), 1.0 μM Cbl-i): 150%
- Expansion of TIL (REP), total cell number relative to IL-2 alone ([3]; TIL3 (ovary), 10 μM Cbl-i): 107%
- Expansion of TIL (REP), total cell number relative to IL-2 alone ([3]; TIL3 (ovary), IL-2 + 0.1 μM Cbl-i): 193%
- Expansion of TIL (REP), total cell number relative to IL-2 alone ([3]; TIL3 (ovary), IL-2 + 1.0 μM Cbl-i): 207%
- Expansion of TIL (REP), total cell number relative to IL-2 alone ([3]; TIL3 (ovary), IL-2 + 10 μM Cbl-i): 197%
- Expansion of TIL (REP), total cell number relative to IL-2 alone ([3]; TIL4 (colon), 0.1 μM Cbl-i): 80%
- Expansion of TIL (REP), total cell number relative to IL-2 alone ([3]; TIL4 (colon), 1.0 μM Cbl-i): 80%
- Expansion of TIL (REP), total cell number relative to IL-2 alone ([3]; TIL4 (colon), 10 μM Cbl-i): 107%
- Expansion of TIL (REP), total cell number relative to IL-2 alone ([3]; TIL4 (colon), IL-2 + 0.1 μM Cbl-i): 167%
- Expansion of TIL (REP), total cell number relative to IL-2 alone ([3]; TIL4 (colon), IL-2 + 1.0 μM Cbl-i): 194%
- Expansion of TIL (REP), total cell number relative to IL-2 alone ([3]; TIL4 (colon), IL-2 + 10 μM Cbl-i): 240%
- Expansion of TIL (REP), total cell number relative to IL-2 alone ([3]; TIL6 (ovary), 0.1 μM Cbl-i): 51%
- Expansion of TIL (REP), total cell number relative to IL-2 alone ([3]; TIL6 (ovary), 1.0 μM Cbl-i): 63%
- Expansion of TIL (REP), total cell number relative to IL-2 alone ([3]; TIL6 (ovary), 10 μM Cbl-i): 49%
- Expansion of TIL (REP), total cell number relative to IL-2 alone ([3]; TIL6 (ovary), IL-2 + 0.1 μM Cbl-i): 206%
- Expansion of TIL (REP), total cell number relative to IL-2 alone ([3]; TIL6 (ovary), IL-2 + 1.0 μM Cbl-i): 180%
- Expansion of TIL (REP), total cell number relative to IL-2 alone ([3]; TIL6 (ovary), IL-2 + 10 μM Cbl-i): 168%
- Stability in RPMI medium ([4]; 1 μM, complete RPMI with 10% human serum, 4° C., 22° C. or 37° C.): at least 11 days
- Stability at multiple temperatures ([4]; 4° C.-37° C., 11 day period, FIG. 33): stable
